Measured values as given in patent publication US20190167725A1, “COMPOSITION AND METHOD FOR IMPROVING EFFICACY OF STEM CELLS” (University-Industry Cooperation Group of Kyung Hee …, priority 2016, published 2019).

What was measured:
[1] = system: ST2 cells (mouse bone marrow-derived MSCs); conditions: 0 mM to 10 mM in lower chamber, 12 hours
Description: The cells were maintained in RPMI1640 medium (Invitrogen) containing 10% FBS, 1% penicillin, and streptomycin (Invitrogen). The cells were cultured to a confluence of 80%, recovered with 0.25% trypsin/EDTA (Invitrogen), and subcultured in a ratio of 1:3 to 1:4. The cells which underwent 5 to 8 subcultures were used in the experiment. The cells were maintained in a 37° C. incubator containing 5% CO2.
Millicell culture plate inserts with a pore size of 8 μm (EMD Millipore) were coated with type I collagen (0.5 μg/mL). The ST2 cells (2.5×10^4 cells) were suspended in normal growth medium and added into an upper chamber. After culturing the cells for 5 to 6 hours, the medium was replaced with DMEM medium containing 2% FBS and 1% penicillin and streptomycin.
After culturing for an additional 12 hours, each insert was fixed with 4% formaldehyde in the presence of PBS at room temperature for 10 minutes. The ST2 cells were stained with a hematoxylin solution for 30 minutes, and the cells remaining on the upper chamber membrane were removed using cotton swabs. The lower chamber membrane was confirmed using the Nikon ECLIPSE TS 100 microscope. The number of cells in each cell image was counted using Adobe Photoshop CS6.

[2] = system: human bone marrow-derived MSCs (hMSCs); conditions: 10 mM, two subcultures, 14 days culture, colonies 3 mm or greater
Description: Then, the cells were added at a concentration of 5×10^2 cells/well (10 cm dish) to low-glucose DMEM (GE Healthcare Life Sciences) containing 10% FBS, 1% penicillin and streptomycin (Invitrogen), and 1% L-glutamine in a plate, and the plate was incubated under conditions of 37° C. and 5% CO2 for 14 days. The plate was then fixed with 100% methanol, stained with a 1% crystal violet staining solution (Sigma-Aldrich), and the number of colonies was counted under a stereomicroscope. In particular, cell populations of human bone marrow-derived MSCs with a diameter of 3 mm or greater were considered as colonies.

[3] = system: ST2 cells (mouse bone marrow-derived MSCs); conditions: 10 mM, 36 hours treatment, 10 days culture, colonies 1 mm or greater
Description: Then, the cells were added to a plate at a concentration of 5.7×10^4 cells/well and cultured under conditions of 37° C. and 5% CO2 for 10 days. The plate was then stained with a 1% crystal violet staining solution (Sigma-Aldrich) and the number of colonies was counted under a stereomicroscope. In particular, cell populations with a diameter of 1 mm or greater were considered as colonies.

[4] = system: human bone marrow-derived MSCs (hMSCs); conditions: concentration series, serum-free DMEM
Text: The human bone marrow-derived MSCs (hMSCs) were obtained from Lonza (Basel, Switzerland) and cultured in MSCGM medium (Lonza). Cells which underwent 3 to 6 subcultures were used in the experiment.

[5] = system: hematopoietic progenitor cells (Lin-/Sca1+/c-Kit+, LSK); conditions: sodium acetate 4 nmol/kg subcutaneous, blood collected after 10 minutes, vs normal control group
Description: Populations of circulating hematopoietic progenitor cells (HPCs), lineage negative, Sca-1 positive, and c-Kit positive (Lin^−/Sca1^+/c-Kit^+, LSK) cells were analyzed by a flow cytometry analyzer.
Monocytes were separated by Ficoll centrifugation. Then, hematopoietic progenitor cells were examined using anti-mouse CD4-FITC (Biolegend, San Diego, Calif.), anti-mouse CD49b-FITC (Biolegend), anti-mouse CD11b-FITC (Biolegend), anti-mouse B220-FITC (Biolegend), anti-mouse Gr-1-FITC (Biolegend), anti-mouse CD8-FITC (Biolegend), anti-mouse Ly-6A/E (Sca-1)-PE (Biolegend), and anti-mouse CD117 (c-Kit)-APC (Biolegend).

VEGF = conditions: 10 mM, 48 hours, ST2 cells, vs untreated control (CON)
Description: (§1) ST2 cells (3.8×10^5 cells) were added to a 6-well plate under the condition of normal growth medium and cultured overnight. The medium was replaced with low-glucose DMEM medium without FBS and the cells were cultured for 18 hours. Then, the cells were treated with 10 mM sodium acetate (C2) for 48 hours or not treated (CON).
(§2) A cell lysate was obtained from the sample, and total RNA was isolated using TRIzol. The cDNA was synthesized from the total RNA, and the expression levels of mRNAs of VEGF and IL-10 in cells were measured by real-time PCR using primers for VEGF and IL-10 and SYBR green PCR Master Mix (fluorescent material).

IL-10 = conditions: 10 mM, 48 hours, ST2 cells, vs untreated control (CON)
Description: as §1, §2

[6] = system: mouse bone marrow-derived MSCs; conditions: 200 mM in drinking water for 7 days, vs drinking water without sodium acetate
Description: Each C57BL/6 mouse was fed drinking water with or without sodium acetate (200 mM) for 7 days, and femurs were collected from each mouse. The collected femurs were crushed using a mortar, treated with 0.2% type I collagenase (Worthington), and thereby the bone marrow cells attached to the bones were collected.

[7] = system: ST2 cells (mouse bone marrow-derived MSCs); conditions: 10 mM, 12 hours, growth factor reduced Matrigel
Description: Then, the upper part of each insert was coated with 50 μL of growth factor reduced Matrigel (BD Bioscience). […] The lower chamber membrane was confirmed using a Nikon ECLIPSE TS 100 microscope.

SMILES	mobility of ST2 cells (number of migrated cells) [1]	enhancement of colony-forming ability (CFU-F) of hMSCs [2]	colony-forming ability (CFU-F) of mouse bone marrow-derived MSCs [3]	mobility of human bone marrow-derived MSCs (hMSCs) [4]	hematopoietic progenitor cells (LSK) in the peripheral blood [5]	increase of expression of VEGF mRNA (VEGF)	increase of expression of IL-10 mRNA (IL-10)	increase in frequency of cell population of mouse bone marrow-derived MSCs (CFU-F) [6]	increase in size of cell population of mouse bone marrow-derived MSCs (CFU-F) [6]	invasion (number of cells through Matrigel) [7]
CCCC(=O)[O-].[Na+] [sodium butyrate]	increase in a manner dependent on the concentrations	–	–	–	–	–	–	–	–	–
CC(=O)[O-].[Na+] [sodium acetate]	increase in a manner dependent on the concentration	about 5 fold	significantly increased	increased in a manner dependent on the concentration	enhancement of mobility from the bone marrow to the peripheral blood	about 2.5 fold	about 2.4 fold	about 2 fold	about 2 fold	significantly increased
CCC(=O)[O-].[Na+] [sodium propionate]	increase in a manner dependent on the concentrations	–	enhancement of a CFU-F-forming ability	–	–	–	–	–	–	–
